For series [1], the target named is T1, cloned human μ-opioid receptor (Homo sapiens, UniProt P35372).
T1 construct: expressed in transfected cells
The series can be described thus: Inhibition of DAMGO-stimulated [35S]GTPγS binding. It is filed as biochemical.

The target in series [2] is T2, cloned human δ-opioid receptor (Homo sapiens, UniProt P41143).
T2 construct: expressed in transfected cells
The series can be described thus: Inhibition of DPDPE-stimulated [35S]GTPγS binding. It is filed as biochemical. (In general: GTPγS is a poorly hydrolysed GTP analogue; its binding reports G protein activation.)

Series [3] concerns the target T3, cloned human κ-opioid receptor (Homo sapiens, UniProt P41145).
T3 construct: expressed in transfected cells
The series can be described thus: Inhibition of U69,593-stimulated [35S]GTPγS binding. The format is biochemical. The note with it: for efficacy for the κ opioid receptor in words: [35S]GTPγS in vitro functional assay; for δ/κ / μ/κ: ratio of Ke values; for δ/κ: selectivity for κ relative to δ; for μ/κ: selectivity for κ relative to μ.

The mark [4] stands for this setting: antagonism of DAMGO-stimulated [35S]GTPγS binding, cloned human μ receptor, read-out: μ, DAMGO Ke.
Where [5] appears, read: antagonism of DPDPE-stimulated [35S]GTPγS binding, cloned human δ receptor, read-out: δ, DPDPE Ke.
Setting [6] is: antagonism of U69,593-stimulated [35S]GTPγS binding, cloned human κ receptor, read-out: κ, U69,593 Ke.

Where two headings read alike, the source gives them in different places.

The term melting point denotes the temperature, or range, at which the solid turns liquid.

T2 sequence (P41143 whole entry): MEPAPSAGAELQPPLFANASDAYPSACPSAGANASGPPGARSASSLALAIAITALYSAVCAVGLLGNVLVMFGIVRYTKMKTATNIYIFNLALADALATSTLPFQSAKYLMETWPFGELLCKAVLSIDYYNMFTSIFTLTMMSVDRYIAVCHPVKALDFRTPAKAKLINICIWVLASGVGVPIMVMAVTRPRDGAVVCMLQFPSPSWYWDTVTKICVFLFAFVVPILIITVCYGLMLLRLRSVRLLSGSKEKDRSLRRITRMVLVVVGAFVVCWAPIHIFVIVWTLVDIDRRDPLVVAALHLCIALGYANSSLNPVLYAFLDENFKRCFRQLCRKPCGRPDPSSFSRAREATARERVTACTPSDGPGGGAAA
T1 sequence (P35372 whole entry): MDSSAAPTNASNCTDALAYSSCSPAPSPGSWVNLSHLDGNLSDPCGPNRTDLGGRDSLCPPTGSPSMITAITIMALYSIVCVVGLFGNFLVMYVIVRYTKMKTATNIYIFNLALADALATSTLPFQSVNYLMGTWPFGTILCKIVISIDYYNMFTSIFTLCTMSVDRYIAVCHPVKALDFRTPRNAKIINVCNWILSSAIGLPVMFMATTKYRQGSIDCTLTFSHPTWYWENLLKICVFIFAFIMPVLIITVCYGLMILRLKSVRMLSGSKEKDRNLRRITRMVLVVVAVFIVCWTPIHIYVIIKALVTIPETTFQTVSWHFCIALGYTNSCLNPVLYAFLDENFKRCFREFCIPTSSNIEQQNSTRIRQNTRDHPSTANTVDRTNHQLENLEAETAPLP
T3 sequence (P41145 whole entry): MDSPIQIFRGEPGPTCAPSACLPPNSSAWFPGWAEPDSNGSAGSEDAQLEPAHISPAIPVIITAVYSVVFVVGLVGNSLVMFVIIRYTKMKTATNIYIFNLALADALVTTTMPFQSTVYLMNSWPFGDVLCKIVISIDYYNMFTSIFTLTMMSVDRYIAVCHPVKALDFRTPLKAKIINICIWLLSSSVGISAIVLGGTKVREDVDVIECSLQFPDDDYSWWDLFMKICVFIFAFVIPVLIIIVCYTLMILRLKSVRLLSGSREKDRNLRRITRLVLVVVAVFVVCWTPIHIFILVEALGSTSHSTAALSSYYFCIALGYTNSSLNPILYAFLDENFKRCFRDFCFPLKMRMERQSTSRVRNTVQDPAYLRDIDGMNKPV

In the case of `Cc1cccc(Oc2ccc(C(=O)N[C@H](CN3CCN(c4cccc(O)c4)[C@@H](C)C3)C(C)C)cc2Cl)c1.Cl.Cl` [Compound 6l, 3-Chloro-N-[(2S)-1-[(3S)-4-(3-hydroxyphenyl)-3-methylpiperazin-1-yl]-3-methylbutan-2-yl]-4-(3-methylphenoxy)benzamide Dihydrochloride], the melting point fell in the range of 154 to 158 °C. The Kb in series [1] (setting [4]) came to 43 ± 10 nM. Besides, in series [2] (setting [5]), the Kb came to 1100 ± 262 nM. Moreover, in series [3], the “efficacy for the κ opioid receptor in words” value was “high efficacy (low Ke values)”. In series [3] (setting [6]), the Kb stood at 0.29 ± 0.13 nM.

Consider `Cc1ccc(O)c(Oc2ccc(C(=O)N[C@H](CN3CCN(c4cccc(O)c4)[C@@H](C)C3)C(C)C)cc2)c1.Cl.Cl` [Compound 6m, 4-(2-Hydroxy-5-methylphenoxy)-N-[(2S)-1-[(3S)-4-(3-hydroxyphenyl)-3-methylpiperazin-1-yl]-3-methylbutan-2-yl]benzamide Dihydrochloride], for which the melting point is 179 to 183 °C.

The compound `CC(C)[C@@H](CN1CCN(c2cccc(O)c2)[C@@H](C)C1)NC(=O)c1ccc(Oc2ccccc2)nc1.Cl.Cl.Cl` [Compound 7b, N-[(2S)-1-[(3S)-4-(3-Hydroxyphenyl)-3-methylpiperazin-1-yl]-3-methylbutan-2-yl]-6-phenoxypyridine-3-carboxamide Trihydrochloride] showed a melting point of 168 to 170 °C. The compound also returned a Kb in series [1] of 60 ± 11 nM. Also, the Kb in series [2] amounted to 1790 ± 63 nM. Besides, in series [3], the Kb stood at 1.6 ± 0.3 nM, the δ/κ is reported as 1119 and the μ/κ turned out to be 38.

In the case of `CC(C)[C@@H](CN1CCN(c2cccc(O)c2)[C@@H](C)C1)NC(=O)c1ccc(Oc2ccccc2F)cc1.Cl.Cl` [Compound 19a, 4-(2-Fluorophenoxy)-N-[(1S)-1-{[(3S)-4-(3-hydroxyphenyl)-3-methylpiperazin-1-yl]methyl}-2-methylpropyl]benzamide Dihydrochloride], the melting point lay within 156 to 159 °C. Also, the Kb in series [1] (setting [4]) was found to be 21.1 ± 4 nM. Further, in series [2] (setting [5]), the Kb turned out to be 96 ± 18 nM. For the same compound, in series [3], the “efficacy for the κ opioid receptor in words” value was “high efficacy (low Ke values)”, the δ/κ is reported as 126 and the μ/κ was determined as 28. Also, the Kb in series [3] (setting [6]) stood at 0.76 ± 0.21 nM.

With `CC(C)[C@@H](CN1CCN(c2cccc(O)c2)[C@@H](C)C1)NC(=O)c1ccc(Oc2cccc(C(F)(F)F)c2)cc1` [Compound 19b, N-[(1S)-1-{[(3S)-4-(3-Hydroxyphenyl)-3-methylpiperazin-1-yl]methyl}-2-methylpropyl]-4-[3-(trifluoromethyl)phenoxy]benzamide], the melting point was 110 to 115 °C. Besides, the Kb in series [1] came to 21 ± 7.2 nM. The compound further had a Kb in series [2] of 54 ± 19 nM. Moreover, in series [3], the Kb worked out at 1.2 ± 0.35 nM, the δ/κ came out at 45 and the μ/κ is listed as 18.

With `CC(C)[C@@H](CN1CCN(c2cccc(O)c2)[C@@H](C)C1)NC(=O)c1ccc(Oc2cccc(Cl)c2)cc1.Cl.Cl` [Compound 19c, 4-(3-Chlorophenoxy)-N-[(1S)-1-{[(3S)-4-(3-hydroxyphenyl)-3-methylpiperazin-1-yl]methyl}-2-methylpropyl]benzamide Dihydrochloride], the melting point is 103 to 105 °C. Moreover, the Kb in series [1] (setting [4]) came to 18 ± 7.2 nM. In addition, in series [2] (setting [5]), the Kb stood at 8.3 ± 0.9 nM. The Kb in series [3] (setting [6]) worked out at 0.42 ± 0.05 nM. Further, in series [3], the δ/κ came out at 20 and the μ/κ worked out at 43.

The compound `CC(C)[C@@H](CN1CCN(c2cccc(O)c2)[C@@H](C)C1)NC(=O)c1ccc(Oc2cccc(Br)c2)cc1.Cl.Cl` [Compound 19d, 4-(3-Bromophenoxy)-N-[(1S)-1-{[(3S)-4-(3-hydroxyphenyl)-3-methylpiperazin-1-yl]methyl}-2-methylpropyl]benzamide Dihydrochloride] returned a melting point of 106 to 109 °C. For the same compound, in series [1] (setting [4]), the Kb was 17 ± 6.3 nM. The Kb in series [2] (setting [5]) is 42 ± 19 nM. In series [3] (setting [6]), the Kb came to 0.48 ± 0.02 nM. Further, in series [3], the δ/κ is on record as 88 and the μ/κ was 35.

The compound `Cc1cccc(Oc2ccc(C(=O)N[C@H](CN3CCN(c4cccc(O)c4)[C@@H](C)C3)C(C)C)cc2)c1O.Cl.Cl` [Compound 19e, 4-(2-Hydroxy-3-methylphenoxy)-N-[(2S)-1-[(3S)-4-(3-hydroxyphenyl)-3-methylpiperazin-1-yl]-3-methylbutan-2-yl]benzamide Dihydrochloride] came in with a melting point of 173 °C. For the same compound, the Kb in series [1] (setting [4]) amounted to 23.8 ± 8.9 nM. In series [2] (setting [5]), the Kb is 92.7 ± 14 nM. Moreover, the Kb in series [3] (setting [6]) came out at 0.34 ± 0.16 nM.

`Cc1cc(C)cc(Oc2ccc(C(=O)N[C@H](CN3CCN(c4cccc(O)c4)[C@@H](C)C3)C(C)C)cc2)c1.Cl.Cl` [Compound 19f, 4-(3,5-Dimethylphenoxy)-N-[(1S)-1-{[(3S)-4-(3-hydroxyphenyl)-3-methylpiperazin-1-yl]methyl}-2-methylpropyl]benzamide Dihydrochloride] displayed a melting point of 117 to 120 °C. Also, the Kb in series [1] (setting [4]) came out at 25 ± 7 nM. For the same compound, the Kb in series [2] (setting [5]) turned out to be 78 ± 20 nM. In addition, the Kb in series [3] (setting [6]) is 0.98 ± 0.06 nM. Further, in series [3], the δ/κ was 80 and the μ/κ amounted to 26.

The compound `Cc1cccc(Oc2ccc(C(=O)N[C@H](CN3CCN(c4cccc(O)c4)[C@@H](C)C3)C(C)C)cc2C)c1.Cl.Cl` [Compound 19g, N-[(2S)-1-[(3S)-4-(3-Hydroxyphenyl)-3-methylpiperazin-1-yl]-3-methylbutan-2-yl]-3-methyl-4-(3-methylphenoxy)benzamide Dihydrochloride] returned a melting point of 124 to 130 °C. In addition, the Kb in series [1] (setting [4]) is 14.4 ± 3.9 nM. The Kb in series [2] (setting [5]) turned out to be 21 ± 6 nM. Besides, the Kb in series [3] (setting [6]) came out at 0.16 ± 0.03 nM. For the same compound, in series [3] (Dihydrochloride), the δ/κ turned out to be 131.

Compound `COc1cc(C(=O)N[C@H](CN2CCN(c3cccc(O)c3)[C@@H](C)C2)C(C)C)ccc1Oc1cccc(C)c1.Cl.Cl` [Compound 19h, N-[(2S)-1-[(3S)-4-(3-Hydroxyphenyl)-3-methylpiperazin-1-yl]-3-methylbutan-2-yl]-3-methoxy-4-(3-methylphenoxy)benzamide Dihydrochloride] came in with a melting point of 128 to 131 °C. Besides, in series [1] (setting [4]), the Kb worked out at 35.1 ± 15 nM. Further, the Kb in series [2] (setting [5]) came to 93 ± 4 nM. Moreover, the Kb in series [3] (setting [6]) was found to be 0.25 ± 0.07 nM.

`Cc1cccc(Oc2ccc(C(=O)N[C@H](CN3CCN(c4cccc(O)c4)[C@@H](C)C3)C(C)C)cc2O)c1.Cl.Cl` [Compound 19i, 3-Hydroxy-N-[(2S)-1-[(3S)-4-(3-hydroxyphenyl)-3-methylpiperazin-1-yl]-3-methylbutan-2-yl]-4-(3-methylphenoxy)benzamide Dihydrochloride]: the melting point fell in the range of 195 to 200 °C. In series [1] (setting [4]), the Kb turned out to be 13.7 ± 5.6 nM. Further, the Kb in series [2] (setting [5]) is 81 ± 35 nM. In series [3] (setting [6]), the Kb was 0.57 ± 0.14 nM. Also, in series [3], the δ/κ is listed as 142 and the μ/κ was 24.

In the case of `Cc1cccc(Oc2ccc(C(=O)N[C@H](CN3CCN(c4cccc(O)c4)[C@@H](C)C3)C(C)C)c(C)c2)c1.Cl.Cl` [Compound 19j, N-[(1S)-1-{[(3S)-4-(3-Hydroxyphenyl)-3-methylpiperazin-1-yl]methyl}-2-methylpropyl]-2-methyl-4-(3-methylphenoxy)benzamide Dihydrochloride], the melting point is 164 to 167 °C. The same compound returned a Kb in series [1] of 14 ± 3 nM. The compound further displayed a Kb in series [2] of 18 ± 3 nM. Also, the Kb in series [3] (setting [6]) is 0.65 ± 0.2 nM. In series [3], the δ/κ came out at 28 and the μ/κ is given as 22.

Consider `COc1cc(Oc2cccc(C)c2)ccc1C(=O)N[C@H](CN1CCN(c2cccc(O)c2)[C@@H](C)C1)C(C)C.Cl.Cl` [Compound 19k, N-[(1S)-1-{[(3S)-4-(3-Hydroxyphenyl)-3-methylpiperazin-1-yl]methyl}-2-methylpropyl]-2-methoxy-4-(3-methylphenoxy)benzamide Dihydrochloride], for which the melting point lay in the range of 99 to 102 °C. Also, in series [1] (setting [4]), the Kb was determined as 49 ± 14 nM. Further, in series [2] (setting [5]), the Kb came to 63 ± 20 nM. For the same compound, the Kb in series [3] (setting [6]) stood at 1.3 ± 0.03 nM. In series [3], the δ/κ is listed as 48 and the μ/κ is given as 38.

`Cc1cccc(Oc2ccc(C(=O)N[C@H](CN3CCN(c4cccc(O)c4)[C@@H](C)C3)C(C)C)c(O)c2)c1.Cl.Cl` [Compound 19l, 2-Hydroxy-N-[(1S)-1-{[(3S)-4-(3-hydroxyphenyl)-3-methylpiperazin-1-yl]methyl}-2-methylpropyl]-4-(3-methylphenoxy)benzamide Dihydrochloride] had a melting point of 119 to 123 °C. The same compound yielded a Kb in series [1] of 145 ± 48 nM. The same compound returned a Kb in series [2] of 233 ± 90 nM. Moreover, in series [3], the Kb is 1.8 ± 0.3 nM, the δ/κ is 129 and the μ/κ amounted to 81.

As for `CC(C)[C@@H](CN1CCN(c2cccc(O)c2)[C@@H](C)C1)NC(=O)c1ccc(Oc2ccccc2O)c(Cl)c1.Cl.Cl` [Compound 19n, 3-Chloro-4-(2-hydroxyphenoxy)-N-[(1)-1-{[(3S)-4-(3-hydroxyphenyl)-3-methylpiperazin-1-yl]methyl}-2-methylpropyl]benzamide Dihydrochloride], the “μ, DAMGO Ke” value in series [1] (antagonism of DAMGO-stimulated [35S]GTPγS binding, cloned human μ receptor) came out at 36 ± 9.2 nM. For the same compound, the “δ, DPDPE Ke” value in series [2] (antagonism of DPDPE-stimulated [35S]GTPγS binding, cloned human δ receptor) turned out to be 210 ± 82 nM. In series [3] (antagonism of U69,593-stimulated [35S]GTPγS binding, cloned human κ receptor), the “κ, U69,593 Ke” value was 5.0 ± 0.82 nM. In series [3], the δ/κ turned out to be 42 and the μ/κ turned out to be 7.
